The source of these data is patent publication US8399459B2, “1,4 oxazines as BACE1 and/or BACE2 inhibitors” (Hoffmann-La Roche Inc., priority 2011, dated 2013).

As usually defined, the IC50 is the midpoint of a concentration-inhibition curve. A low value points to inhibition by little substance.

One assay has as its target T1, BACE1 (Homo sapiens, UniProt P56817).
T1 construct: Human HEK293 cells which are stably transfected with a vector expressing a cDNA of the human APP wt gene (APP695); endogenous in cells; host or cells: HEK293 (human), stably transfected with human APP695 wt only
Briefly: Cellular Aβ-lowering assay (Aβ40 ELISA, HEK293 cells expressing human APP695). The format is cell-based. The settings on record: HEK293 cells stably expressing human APP695; Aβ40 in supernatant after 18-20 hrs. On the procedure: Cellular Aβ-Lowering Assay:
Human HEK293 cells which are stably transfected with a vector expressing a cDNA of the human APP wt gene (APP695) were used to assess the potency of the compounds in a cellular assay. The cells were seeded in 96-well microtiter plates in cell culture medium (Iscove, plus 10% (v/v) fetal bovine serum, glutamine, penicillin/streptomycin) to about 80% confluence and the compounds were added at a 10× concentration in 1/10 volume of medium without FCS containing 8% DMSO (final concentration of DMSO was kept at 0.8% v/v). After 18-20 hrs incubation at 37° C. and 5% CO2 in a humidified incubator the culture supernatant was harvested for the determination of Aβ40 concentrations. 96well ELISA plates (e.g., Nunc MaxiSorb) were coated with monoclonal antibody which specifically recognize the C-terminal end of Aβ40 (Brockhaus et al., NeuroReport 9, 1481-1486; 1998). After blocking of non-specific binding sites with e.g. 1% BSA and washing, the culture supernatants were added in suitable dilutions together with a horseradish peroxidase-coupled Aβ detection antibody (e.g., antibody 4G8, Senetek, Maryland Heights, Mo.) and incubated for 5 to 7 hrs. Subsequently the wells of the microtiter plate were washed extensively with Tris-buffered saline containing 0.05% Tween 20 and the assay was developed with tetramethylbenzidine/H2O2 in citric acid buffer. After stopping the reaction with one volume 1 N H2SO4 the reaction was measured in an ELISA reader at 450 nm wavelength. The concentrations of Aβ in the culture supernatants were calculated from a standard curve obtained with known amounts of pure Aβ peptide.
On the technique in general: ELISA stands for enzyme-linked immunosorbent assay.

The next assay has as its target T2, BACE2 (Rattus norvegicus, UniProt Q6IE75).
T2 construct: endogenous cellular BACE2 in the Ins1e rat cell line; endogenous in cells; host or cells: INS-TMEM27 (INS1e-derived rat cell line with doxycycline-inducible full-length human TMEM27)
T2 sequence (Q6IE75 63-514): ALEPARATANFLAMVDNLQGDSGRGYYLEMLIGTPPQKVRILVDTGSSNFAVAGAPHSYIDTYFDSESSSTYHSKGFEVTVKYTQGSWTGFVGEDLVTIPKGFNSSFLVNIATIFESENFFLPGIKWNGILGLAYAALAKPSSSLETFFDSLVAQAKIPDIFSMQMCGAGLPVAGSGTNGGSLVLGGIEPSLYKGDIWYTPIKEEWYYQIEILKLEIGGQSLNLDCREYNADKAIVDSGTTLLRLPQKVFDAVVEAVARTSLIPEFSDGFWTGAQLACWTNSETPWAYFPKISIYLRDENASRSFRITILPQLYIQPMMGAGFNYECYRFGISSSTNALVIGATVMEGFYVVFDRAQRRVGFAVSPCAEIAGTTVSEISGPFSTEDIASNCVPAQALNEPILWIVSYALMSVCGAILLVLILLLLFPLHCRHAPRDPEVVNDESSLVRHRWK
The assay can be described thus: Assay for BACE inhibition by measuring cellular TMEM27 cleavage (INS-TMEM27 cells, ELISA). The settings on record: INS-TMEM27 (INS1e-derived) cells; shed TMEM27 by ELISA. The format is cell-based. From the text: Assay for BACE Inhibition by Measuring Cellular TMEM27 Cleavage:
The assay uses the principle of inhibition of human TMEM27 cleavage by endogenous cellular BACE2 in the Ins1e rat cell line and shedding from the cell surface into the culture medium, followed by detection in an ELISA assay. Inhibition of BACE2 prevents the cleavage and shedding in a dose-dependent manner.
The stable cell line “INS-TMEM27” represents an INS1e-derived cell line with inducible expression (using the TetOn system) of full-length hTMEM27 in a doxycycline-dependent manner. The cells are cultured throughout the experiment in RPMI1640+Glutamax (Invitrogen) Penicillin/Streptomycin, 10% Fetal bovine serum, […], […], 100 micrograms/ml G418 and 100 microgram/ml hygromycin and are grown inadherent culture at 37° C. in a standard CO2 cell culture incubator.
INS-TMEM27 cells are seeded in 96-well plates. After 2 days in culture, BACE2 inhibitor is added in a range of concentrations as required by the assay and after a further two hours, doxycycline is added to a final concentration of 500 ng/ml. The cells are incubated for a further 46 hours and the supernatant harvested for detection of shed TMEM27.
An ELISA assay (using a pair of mouse anti-human-TMEM27 antibodies, raised against the extracellular domain of TMEM27) is used for detection of TMEM27 in the culture medium. An EC50 for BACE2 inhibition is calculated using the ELISA readout for each inhibitor concentration with standard curve-fitting software such as XLFit for the Excel spreadsheet program.

Molecules are shown by their SMILES. Where a name gives a salt, the structure may show the parent alone.

T1 sequence (P56817 46-501): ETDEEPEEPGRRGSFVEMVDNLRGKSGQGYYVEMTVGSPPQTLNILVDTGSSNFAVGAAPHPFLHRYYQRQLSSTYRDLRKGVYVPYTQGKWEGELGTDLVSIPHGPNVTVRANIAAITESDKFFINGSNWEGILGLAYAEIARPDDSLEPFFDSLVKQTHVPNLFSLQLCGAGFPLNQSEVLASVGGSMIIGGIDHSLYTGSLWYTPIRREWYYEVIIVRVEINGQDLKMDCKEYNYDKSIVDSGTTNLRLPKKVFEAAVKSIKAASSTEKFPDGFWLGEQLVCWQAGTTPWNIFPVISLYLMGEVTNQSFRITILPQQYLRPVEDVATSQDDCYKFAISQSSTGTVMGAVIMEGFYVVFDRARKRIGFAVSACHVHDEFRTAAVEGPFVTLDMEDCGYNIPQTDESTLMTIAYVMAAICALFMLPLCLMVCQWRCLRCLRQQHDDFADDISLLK

For `Cc1cc(Cl)cc(-c2cccc(C3(C)COCC(N)=N3)c2)c1` (centres unmarked) [Example 9, 5-(3′-Chloro-5′-methyl-biphenyl-3-yl)-5-methyl-5,6-dihydro-2H-[1,4]oxazin-3-ylamine], the IC50 was determined as 2.48 µM on BACE1 and 1.11 µM at BACE2. Consider `C[C@@]1(c2cc(-c3cc(Cl)cc(Cl)c3)ccc2F)COCC(N)=N1` [Example 37, (R)-5-(3′,5′-Dichloro-4-fluoro-biphenyl-3-yl)-5-methyl-5,6-dihydro-2H-[1,4]oxazin-3-ylamine], for which the IC50 was 0.51 µM against BACE1 and 0.12 µM against BACE2. In the case of `CC1(c2cccc(C#Cc3ccc(Cl)cn3)c2)COCC(N)=N1` (centres unmarked) [Example 43, 5-[3-(5-Chloro-pyridin-2-ylethynyl)-phenyl]-5-methyl-5,6-dihydro-2H-[1,4]oxazin-3-ylamine], at BACE1, the IC50 stood at 0.3 µM.

`Cc1cc(C2(c3cccc(-c4cccnc4)c3)COCC(N)=N2)ccc1OC(F)F` (centres unmarked) [Example 44, 5-(4-Difluoromethoxy-3-methyl-phenyl)-5-(3-pyridin-3-yl-phenyl)-5,6-dihydro-2H-[1,4]oxazin-3-ylamine]: it took 0.06 µM to reach half-maximal inhibition on BACE1 (IC50).

In turn, `Cc1cc(C2(c3cccc(-c4ccc(Cl)nc4)c3)COCC(N)=N2)ccc1OC(F)F` (centres unmarked) [Example 45, 5-[3-(6-Chloro-pyridin-3-yl)-phenyl]-5-(4-difluoromethoxy-3-methyl-phenyl)-5,6-dihydro-2H-[1,4]oxazin-3-ylamine] registered an IC50 against BACE1 of 0.36 µM. On to `Cc1cc(C2(c3cccc(-c4cncc(Cl)c4)c3)COCC(N)=N2)ccc1OC(F)F` (centres unmarked) [Example 46, 5-[3-(5-Chloro-pyridin-3-yl)-phenyl]-5-(4-difluoromethoxy-3-methyl-phenyl)-5,6-dihydro-2H-[1,4]oxazin-3-ylamine], for which the values for the IC50 against BACE1 and against BACE2 were 0.04 µM and 0.03 µM, respectively. Turning to `NC1=NC(c2ccc(OC(F)F)nc2)(c2cccc(-c3cncc(Cl)c3)c2)COC1` (centres unmarked) [Example 47, 5-[3-(5-Chloro-pyridin-3-yl)-phenyl]-5-(6-difluoromethoxy-pyridin-3-yl)-5,6-dihydro-2H-[1,4]oxazin-3-ylamine], the IC50 on BACE1 is 0.11 µM. On the same count and under the same terms, the same measure for `COc1cncc(-c2cccc(C3(c4ccc(OC(F)F)nc4)COCC(N)=N3)c2)c1` (centres unmarked) [Example 48, 5-(6-Difluoromethoxy-pyridin-3-yl)-5-[3-(5-methoxy-pyridin-3-yl)-phenyl]-5,6-dihydro-2H-[1,4]oxazin-3-ylamine]: 0.03 µM. Regarding `CC1(c2cccc(-c3nc4ccc(Cl)cc4o3)c2)COCC(N)=N1` (centres unmarked) [Example 49, 5-[3-(6-Chloro-benzooxazol-2-yl)-phenyl]-5-methyl-5,6-dihydro-2H-[1,4]oxazin-3-ylamine], the IC50 on BACE1 and at BACE2 was 0.2 µM each time.

In the case of `CC1(c2cccc(-c3nc4cc(Cl)ccc4[nH]3)c2)COCC(N)=N1` (centres unmarked) [Example 50, 5-[3-(5-Chloro-1H-benzoimidazol-2-yl)-phenyl]-5-methyl-5,6-dihydro-2H-[1,4]oxazin-3-ylamine], at BACE1, the IC50 was 1.28 µM. With `NC1=NC(c2cc(-c3cncnc3)ccc2F)(C(F)F)COC1` (centres unmarked) [Example 51, 5-Difluoromethyl-5-(2-fluoro-5-pyrimidin-5-yl-phenyl)-5,6-dihydro-2H-[1,4]oxazin-3-ylamine], the IC50 on BACE1 worked out at 0.77 µM. On to `NC1=NC(c2cc(-c3cncc(Cl)c3)ccc2F)(C(F)F)COC1` (centres unmarked) [Example 52, 5-[5-(5-Chloro-pyridin-3-yl)-2-fluoro-phenyl]-5-difluoromethyl-5,6-dihydro-2H-[1,4]oxazin-3-ylamine], for which the IC50 on BACE1 is 0.28 µM. Same read-out and setting: the figure for `CC1(c2cccc(-c3nc4cc(Cl)ccc4o3)c2)COCC(N)=N1` (centres unmarked) [Example 53, 5-[3-(5-Chloro-benzooxazol-2-yl)-phenyl]-5-methyl-5,6-dihydro-2H-[1,4]oxazin-3-ylamine] is 1.49 µM; for `CC1(c2cccc(C#Cc3ccccc3)c2)COCC(N)=N1` (centres unmarked) [Example 54, 5-Methyl-5-(3-phenylethynyl-phenyl)-5,6-dihydro-2H-[1,4]oxazin-3-ylamine] it is 1.47 µM. On the same count and under the same terms, the figure for `CC1(c2cccc(C#Cc3ccsc3)c2)COCC(N)=N1` (centres unmarked) [Example 55, 5-Methyl-5-(3-thiophen-3-ylethynyl-phenyl)-5,6-dihydro-2H-[1,4]oxazin-3-ylamine] is 2.78 µM. Still for that read-out and setting: the same measure for `COc1cc(-c2cccc(C3(C)COCC(N)=N3)c2)cc(F)c1F` (centres unmarked) [Example 56, 5-(4′,5′-Difluoro-3′-methoxy-biphenyl-3-yl)-5-methyl-5,6-dihydro-2H-[1,4]oxazin-3-ylamine formate]: 2.55 µM; for `CC1(c2cccc(-c3cc(C(F)(F)F)cc(C(F)(F)F)c3)c2)COCC(N)=N1` (centres unmarked) [Example 57, 5-(3′,5′-Bis-trifluoromethyl-biphenyl-3-yl)-5-methyl-5,6-dihydro-2H-[1,4]oxazin-3-ylamine formate]: 6.72 µM; for `CC1(c2cccc(-c3ccc(F)c(OCC(F)(F)F)c3)c2)COCC(N)=N1` (centres unmarked) [Example 58, 5-[4′-Fluoro-3′-(2,2,2-trifluoro-ethoxy)-biphenyl-3-yl]-5-methyl-5,6-dihydro-2H-[1,4]oxazin-3-ylamine formate]: 8.34 µM. Molecule `COc1ccc2ccc(-c3cccc(C4(C)COCC(N)=N4)c3)cc2c1` (centres unmarked) [Example 59, 5-[3-(7-Methoxy-naphthalen-2-yl)-phenyl]-5-methyl-5,6-dihydro-2H-[1,4]oxazin-3-ylamine formate] came in with an IC50 against BACE1 of 4.39 µM.
